Assay: Whole body autoradiography after 30-minute 3 mg/kg IV infusion of [^14C]-tigecycline
Format: in vivo, Long-Evans rats
Method: Male Sprague-Dawley and Long-Evans rats were obtained from Charles River Breeding Laboratories, Raleigh, N.C., and were quarantined for at least one week prior to the start of the study. […] The dosing solution was diluted and radioassayed directly in Ultima Gold scintillation counting cocktail (Packard Inc.). […] All pumps were calibrated prior to the administration of the compound. Rats were anesthetized with isoflurane prior to cardiac puncture exsanguination at the prescribed times after dosing. Sprague-Dawley and Long-Evans rats were sacrificed one per time point at 0.5, 8.5, 24, 72, 168 and 336 hr post-dose. Immediately following euthanasia, each rat was totally immersed in a bath of hexane and dry ice (−75° C.) until frozen. Each carcass was dried and stored at −30° C. until embedded. […] Each frozen rat was sagitally sectioned at −20° C. A sufficient number of sections were collected to ensure sampling of all tissues of interest. The sections were dehydrated overnight in a cryochamber and then rapidly transferred to a dessicator containing CaSO4 to prevent condensation of atmospheric moisture while equilibrating to room temperature. The sections were mounted on cardboard and labeled with [^14C]-labeled black ink with a unique identification number. […] A small piece of Scotch tape was placed over the dried radioactive ink to prevent the contamination of the storage phosphor screens. Phosphor imaging plates, BAS-SR 2025 (Fuji Photo Film Co., Japan) were exposed to bright visible light for 20 minutes using an IP eraser (Raytest, USA Inc., New Castle, Del.) to remove background radiation. Sections and calibration blood standards were concurrently placed in direct contact with Ips and exposed for 7 days. All sections were stored at room temperature in a lead shielding box to minimize background levels. Phosphor images were generated using a Fujifilm BAS-5000 Bio-Imaging Analyzer and quantitated by MCID M2 Software, version 3.2 (Imaging Research Inc., St. Catherines, Ontario, Canada). The STDs and QCs were analyzed using the circular sampling tool in the MCID software program. Areas of interest in whole-body sections were manually outlined with the regional sampling tool to generate count data. Radioactive concentrations in select tissues were determined by digital analysis of the resulting autoradiograms on the basis of a calibration curve. […] The linear regression curve was then used to determine the concentration of unknown radioactivity of study samples. […] Blood samples were combusted using a Model 307 sample oxidizer (Packard Instrument Company). […] Research Triangle Park, N.C.), which applies a model-independent approach and standard procedures as described in Gibaldi and Perrier. Gibaldi, Pharmacokinetics, 1982. […] For IV infusion dosing, C30 min was the concentration at 30 minutes, the first sampling time point. The maximum plasma concentration (Cmax) and the corresponding time of peak concentration following IV administration were obtained directly by numerical inspection from the individual concentration-time data. The terminal half-life was calculated by the ratio of ln2/λz where λz is derived from the terminal slope of the concentration time curve. The area under the plasma concentration versus time curve from zero to infinity was calculated using the trapezoidal rule, where Clast is the last measurable plasma concentration. Tissue to plasma concentration ratios were calculated according to the following equation: Ctissue/Cplasma, where Ctissue equals the drug concentration in tissue (ng equiv./g), and Cplasma equals the drug concentration in plasma (ng equiv./g).

SMILES: CN(C)c1cc(NC(=O)CNC(C)(C)C)c(O)c2c1C[C@H]1C[C@H]3[C@H](N(C)C)C(O)=C(C(N)=O)C(=O)[C@@]3(O)C(O)=C1C2=O [[^14C]-Tigecycline]
- AUC (Blood): 21954 Ng eq hr/g
- T1/2 (Blood): 62 h
- Mean concentration of total radioactivity (Blood, 0.5 Hrs): 1296 ng equiv./g
- Tissue:Plasma Ratio (Blood, 0.5 Hrs): 1.33
- Mean concentration of total radioactivity (Blood, 24 Hrs): 340 ng equiv./g
- Tissue:Plasma Ratio (Blood, 24 Hrs): 4.81
- Mean concentration of total radioactivity (Blood, 72 Hrs): 11.8 ng equiv./g
- Tissue:Plasma Ratio (Blood, 72 Hrs): 5.05
- Mean concentration of total radioactivity (Blood, 168 Hrs): 2.72 ng equiv./g
- Tissue:Plasma Ratio (Blood, 168 Hrs): 5.05
- Mean concentration of total radioactivity (Blood, 336 Hrs): 1.24 ng equiv./g
- AUC (Blood, first AUC column): 21843 Ng eq hr/g
- AUC (Plasma): 12938 Ng eq hr/g
- T1/2 (Plasma): 19 h
- Mean concentration of total radioactivity (Plasma, 0.5 Hrs): 975 ng equiv./g
- Tissue:Plasma Ratio (Plasma, 0.5 Hrs): 1.00
- Mean concentration of total radioactivity (Plasma, 24 Hrs): 70.5 ng equiv./g
- Tissue:Plasma Ratio (Plasma, 24 Hrs): 1.00
- Mean concentration of total radioactivity (Plasma, 72 Hrs): 4.31 ng equiv./g
- Tissue:Plasma Ratio (Plasma, 72 Hrs): 1.00
- Mean concentration of total radioactivity (Plasma, 168 Hrs): <1.03 ng equiv./g
- Tissue:Plasma Ratio (Plasma, 168 Hrs): 1.00
- Mean concentration of total radioactivity (Plasma, 336 Hrs): <1.03 ng equiv./g
- AUC (Plasma, first AUC column): 12923 Ng eq hr/g
- AUC (Skin): 109296 Ng eq hr/g
- Cmax (Skin): 1997 Ng equiv/g
- T1/2 (Skin): 473 h
- tissue concentration at 336 hours as % of Cmax (Skin): 8%
- Mean concentration of total radioactivity (Skin, 0.5 Hrs): 2502 ng equiv./g
- Tissue:Plasma Ratio (Skin, 0.5 Hrs): 2.05
- Mean concentration of total radioactivity (Skin, 24 Hrs): 2363 ng equiv./g
- Tissue:Plasma Ratio (Skin, 24 Hrs): 8.76
- Mean concentration of total radioactivity (Skin, 72 Hrs): 1787 ng equiv./g
- Tissue:Plasma Ratio (Skin, 72 Hrs): 179
- Mean concentration of total radioactivity (Skin, 168 Hrs): 351 ng equiv./g
- Tissue:Plasma Ratio (Skin, 168 Hrs): 179
- Mean concentration of total radioactivity (Skin, 336 Hrs): 211 ng equiv./g
- AUC (Skin, first AUC column): 58287 Ng eq hr/g
- AUC (Uveal Tract): 233288 Ng eq hr/g
- Cmax (Uveal Tract): 2502 Ng equiv/g
- T1/2 (Uveal Tract): 201 h
- tissue concentration at 336 hours as % of Cmax (Uveal Tract): 1%
- Mean concentration of total radioactivity (Uveal Tract, 0.5 Hrs): 1997 ng equiv./g
- Tissue:Plasma Ratio (Uveal Tract, 0.5 Hrs): 2.57
- Mean concentration of total radioactivity (Uveal Tract, 24 Hrs): 124 ng equiv./g
- Tissue:Plasma Ratio (Uveal Tract, 24 Hrs): 25.7
- Mean concentration of total radioactivity (Uveal Tract, 72 Hrs): 96.5 ng equiv./g
- Tissue:Plasma Ratio (Uveal Tract, 72 Hrs): 393
- Mean concentration of total radioactivity (Uveal Tract, 168 Hrs): 74.8 ng equiv./g
- Tissue:Plasma Ratio (Uveal Tract, 168 Hrs): 393
- Mean concentration of total radioactivity (Uveal Tract, 336 Hrs): 19.3 ng equiv./g
- AUC (Uveal Tract, first AUC column): 131346 Ng eq hr/g
- T1/2 (Uveal Tract, listed as [^14C]-tigecycline): 20 h

From US20050148553A1, “Use of tigecycline, alone, or in combination with rifampin to treat osteomyelitis and/or septic arthritis” (priority 2003, published 2005)
